{"source": "patent US8952024B2", "about": "“Herbicidal pyrimidone derivatives” (E I du Pont de Nemours and Company, priority 2009, dated 2015)", "experiment_in_all_cases": "Test B pre-/postemergence plant response", "assay_type_in_all_cases": "in vivo", "key": {"[1]": {"system": "green foxtail (Setaria viridis)", "outline": "(§1)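 Visually scored on a 0 to 100 scale after 13 to 15 days in greenhouse versus controls. Treatments were preemergence on seeded loam/sand soil and postemergence on 1- to 4-leaf plants.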"}, "[2]": {"system": "lambsquarters (Chenopodium album)", "outline": "as §1"}, "[3]": {"system": "large crabgrass (Digitaria sanguinalis)", "outline": "as §1"}, "[4]": {"system": "Surinam grass (Brachiaria decumbens)", "outline": "as §1"}, "[5]": {"system": "downy bromegrass (Bromus tectorum)", "outline": "as §1"}, "[6]": {"system": "Italian ryegrass (Lolium multiflorum)", "outline": "as §1"}, "[7]": {"system": "woolly cupgrass (Eriochloa villosa)", "outline": "as §1"}, "[8]": {"system": "pigweed (Amaranthus retroflexus)", "outline": "as §1"}, "[9]": {"system": "wheat (Triticum aestivum)", "outline": "as §1"}, "[10]": {"system": "goosegrass (Eleusine indica)", "outline": "as §1"}, "[11]": {"system": "ragweed (common ragweed, Ambrosia elatior)", "outline": "as §1"}, "[12]": {"system": "yellow nutsedge (Cyperus esculentus)", "outline": "as §1"}, "[13]": {"system": "velvetleaf (Abutilon theophrasti)", "outline": "as §1"}, "[14]": {"conditions": "250 g ai/ha, Preemergence, 0 to 100 scale"}, "[15]": {"conditions": "Postemergence, 31 g ai/ha, scale 0 to 100 (0 no effect, 100 complete control)"}, "[16]": {"conditions": "Postemergence, 62 g ai/ha, scale 0 (no effect) to 100 (complete control), 13 to 15 days"}, "[17]": {"conditions": "Postemergence, 125 g ai/ha, visual rating after 13 to 15 days, scale 0 (no effect) to 100 (complete control)"}, "[18]": {"conditions": "Postemergence, 250 g ai/ha, scale 0 to 100"}, "[19]": {"conditions": "Preemergence, 31 g ai/ha, scale 0 to 100 (0 no effect, 100 complete control)"}, "[20]": {"conditions": "Preemergence, 62 g ai/ha, scale 0 to 100 (0 no effect, 100 complete control)"}, "[21]": {"conditions": "Preemergence, 125 g ai/ha, 0 to 100 scale"}}, "data": [{"smiles": "Cc1c(Cl)cccc1-n1c(-c2ccccc2)ncc(C(=O)C2=C(O)CCCC2=O)c1=O", "note": "[Compound 40]", "values": [{"measurement": "Plant response rating, Foxtail, Green", "setting": "[1]; [14]", "result": 100}, {"measurement": "Plant response rating, Foxtail, Green", "setting": "[1]; [15]", "result": 90}, {"measurement": "Plant response rating, Foxtail, Green", "setting": "[1]; [16]", "result": 95}, {"measurement": "Plant response rating, Foxtail, Green", "setting": "[1]; [17]", "result": 95}, {"measurement": "Foxtail, Green plant response rating", "setting": "[1]; [18]", "result": 95}, {"measurement": "Plant response rating, Foxtail, Green", "setting": "[1]; [19]", "result": 0}, {"measurement": "Plant response rating, Foxtail, Green", "setting": "[1]; [20]", "result": 85}, {"measurement": "Foxtail, Green plant response rating", "setting": "[1]; [21]", "result": 85}, {"measurement": "Plant response rating, Lambsquarters", "setting": "[2]; [14]", "result": 100}, {"measurement": "Plant response rating, Lambsquarters", "setting": "[2]; [16]", "result": 100}, {"measurement": "Plant response rating, Lambsquarters", "setting": "[2]; [17]", "result": 100}, {"measurement": "Lambsquarters plant response rating", "setting": "[2]; [18]", "result": 100}, {"measurement": "Plant response rating, Lambsquarters", "setting": "[2]; [19]", "result": 100}, {"measurement": "Plant response rating, Lambsquarters", "setting": "[2]; [20]", "result": 100}, {"measurement": "Lambsquarters plant response rating", "setting": "[2]; [21]", "result": 100}, {"measurement": "Plant response rating, Crabgrass, Large", "setting": "[3]; [14]", "result": 100}, {"measurement": "Plant response rating, Crabgrass, Large", "setting": "[3]; [15]", "result": 85}, {"measurement": "Plant response rating, Crabgrass, Large", "setting": "[3]; [16]", "result": 98}, {"measurement": "Plant response rating, Crabgrass, Large", "setting": "[3]; [17]", "result": 100}, {"measurement": "Crabgrass, Large plant response rating", "setting": "[3]; [18]", "result": 100}, {"measurement": "Plant response rating, Crabgrass, Large", "setting": "[3]; [19]", "result": 70}, {"measurement": "Plant response rating, Crabgrass, Large", "setting": "[3]; [20]", "result": 98}, {"measurement": "Crabgrass, Large plant response rating", "setting": "[3]; [21]", "result": 100}, {"measurement": "Plant response rating, Surinam Grass", "setting": "[4]; [14]", "result": 90}, {"measurement": "Plant response rating, Surinam Grass", "setting": "[4]; [16]", "result": 95}, {"measurement": "Plant response rating, Surinam Grass", "setting": "[4]; [17]", "result": 98}, {"measurement": "Plant response rating, Surinam Grass", "setting": "[4]; [19]", "result": 40}, {"measurement": "Surinam Grass plant response rating", "setting": "[4]; [21]", "result": 85}, {"measurement": "Plant response rating, Bromegrass, Downy", "setting": "[5]; [14]", "result": 10}, {"measurement": "Plant response rating, Bromegrass, Downy", "setting": "[5]; [15]", "result": 45}, {"measurement": "Plant response rating, Bromegrass, Downy", "setting": "[5]; [16]", "result": 50}, {"measurement": "Plant response rating, Bromegrass, Downy", "setting": "[5]; [17]", "result": 70}, {"measurement": "Bromegrass, Downy plant response rating", "setting": "[5]; [18]", "result": 85}, {"measurement": "Plant response rating, Bromegrass, Downy", "setting": "[5]; [19]", "result": 0}, {"measurement": "Plant response rating, Bromegrass, Downy", "setting": "[5]; [20]", "result": 0}, {"measurement": "Bromegrass, Downy plant response rating", "setting": "[5]; [21]", "result": 5}, {"measurement": "Plant response rating, Ryegrass, Italian", "setting": "[6]; [14]", "result": 5}, {"measurement": "Plant response rating, Ryegrass, Italian", "setting": "[6]; [16]", "result": 0}, {"measurement": "Plant response rating, Ryegrass, Italian", "setting": "[6]; [17]", "result": 0}, {"measurement": "Plant response rating, Ryegrass, Italian", "setting": "[6]; [19]", "result": 0}, {"measurement": "Ryegrass, Italian plant response rating", "setting": "[6]; [21]", "result": 5}, {"measurement": "Plant response rating, Cupgrass, Woolly", "setting": "[7]; [14]", "result": 85}, {"measurement": "Plant response rating, Cupgrass, Woolly", "setting": "[7]; [15]", "result": 90}, {"measurement": "Plant response rating, Cupgrass, Woolly", "setting": "[7]; [16]", "result": 95}, {"measurement": "Plant response rating, Cupgrass, Woolly", "setting": "[7]; [17]", "result": 98}, {"measurement": "Cupgrass, Woolly plant response rating", "setting": "[7]; [18]", "result": 98}, {"measurement": "Plant response rating, Cupgrass, Woolly", "setting": "[7]; [19]", "result": 0}, {"measurement": "Plant response rating, Cupgrass, Woolly", "setting": "[7]; [20]", "result": 50}, {"measurement": "Cupgrass, Woolly plant response rating", "setting": "[7]; [21]", "result": 70}, {"measurement": "Plant response rating, Pigweed", "setting": "[8]; [14]", "result": 100}, {"measurement": "Plant response rating, Pigweed", "setting": "[8]; [16]", "result": 98}, {"measurement": "Plant response rating, Pigweed", "setting": "[8]; [17]", "result": 100}, {"measurement": "Plant response rating, Pigweed", "setting": "[8]; [19]", "result": 98}, {"measurement": "Pigweed plant response rating", "setting": "[8]; [21]", "result": 100}, {"measurement": "Plant response rating, Wheat", "setting": "[9]; [16]", "result": 20}, {"measurement": "Plant response rating, Wheat", "setting": "[9]; [17]", "result": 30}, {"measurement": "Plant response rating, Wheat", "setting": "[9]; [19]", "result": 0}, {"measurement": "Wheat plant response rating", "setting": "[9]; [21]", "result": 0}, {"measurement": "Plant response rating, Goosegrass", "setting": "[10]; [14]", "result": 100}, {"measurement": "Plant response rating, Goosegrass", "setting": "[10]; [16]", "result": 90}, {"measurement": "Plant response rating, Goosegrass", "setting": "[10]; [17]", "result": 95}, {"measurement": "Goosegrass plant response rating", "setting": "[10]; [18]", "result": 98}, {"measurement": "Plant response rating, Goosegrass", "setting": "[10]; [19]", "result": 80}, {"measurement": "Goosegrass plant response rating", "setting": "[10]; [21]", "result": 100}, {"measurement": "Plant response rating, Ragweed", "setting": "[11]; [14]", "result": 95}, {"measurement": "Plant response rating, Ragweed", "setting": "[11]; [16]", "result": 98}, {"measurement": "Plant response rating, Ragweed", "setting": "[11]; [17]", "result": 98}, {"measurement": "Plant response rating, Ragweed", "setting": "[11]; [19]", "result": 75}, {"measurement": "Ragweed plant response rating", "setting": "[11]; [21]", "result": 90}, {"measurement": "Plant response rating, Nutsedge, Yellow", "setting": "[12]; [14]", "result": 85}, {"measurement": "Plant response rating, Nutsedge, Yellow", "setting": "[12]; [16]", "result": 35}, {"measurement": "Plant response rating, Nutsedge, Yellow", "setting": "[12]; [17]", "result": 55}, {"measurement": "Plant response rating, Nutsedge, Yellow", "setting": "[12]; [19]", "result": 10}, {"measurement": "Nutsedge, Yellow plant response rating", "setting": "[12]; [21]", "result": 65}, {"measurement": "Plant response rating, Velvetleaf", "setting": "[13]; [14]", "result": 100}, {"measurement": "Plant response rating, Velvetleaf", "setting": "[13]; [16]", "result": 100}, {"measurement": "Plant response rating, Velvetleaf", "setting": "[13]; [17]", "result": 100}, {"measurement": "Plant response rating, Velvetleaf", "setting": "[13]; [19]", "result": 80}, {"measurement": "Velvetleaf plant response rating", "setting": "[13]; [21]", "result": 100}]}]}
